Laboratory results published in article PMC5586502 (Bioorganic & medicinal chemistry letters, 2017).
pIC50: −log10 of the molar value.

Test system: COX-1/2 (mixed COX-1 and COX-2)
Assay: COX
Format: biochemical, ovine/human
Conditions: read-out: IC50 against COX-1/2; suggested from ~37% inhibition at 100 µM

**Q.** COc1ccc(N(Nc2ccc(Br)cc2)c2ccccc2N(Nc2ccc(Br)cc2)c2ccccc2OC)cc1 [Compound 6] was tested. Which pIC50 did it give?
**A.** < 4.00
